One may read the IC50 as the point on the concentration scale where inhibition reaches its midpoint. In general, inhibition refers to the relative decrease from the control value, in per cent.

This is an account of results in ChEMBL document CHEMBL4387705, “Synthesis of new arylsulfonylspiroimidazolidine-2',4'-diones and study of their effect on stimulation of insulin release from MIN6 cell line, inhibition of human aldose reductase, sorbitol accumulations in various tissues and oxidative stress” (Eur J Med Chem, 2019).

Series [1] concerns the target Aldo-keto reductase family 1 member B1 (Homo sapiens, UniProt P15121). Nature of the series: Inhibition of human recombinant ALR2 expressed in Escherichia coli using DL-glyceraldehyde as substrate and NADPH preincubated for 5 mins followed by substrate addition and measured after 30 mins at 2 mins interval by spectrophotometry relative to control.
For series [2], the target named is Aldo-keto reductase family 1 member B1 (Rattus norvegicus) (UniProt P07943). As to the kind of experiment: (§1) Inhibition of ALR2 in rat erythrocytes assessed as reduction in sorbitol accumulation incubated for 3 hrs in presence of 28 mM glucose by gas chromatographic analysis relative to control. Format: cell-based.
The target in series [3] is T1, Aldo-keto reductase family 1 member B1 (Rattus norvegicus, UniProt P07943). The description is as §1. Format: cell-based.
Series [4] is described as follows: Cytotoxicity against HEK293 cells assessed as reduction in cell viability at 50 uM incubated for 48 hrs by MTT assay relative to control. Format: cell-based. The settings on record: human, read-out: INH. (In general: Tetrazolium dyes change colour on reduction, which living cells bring about.)
Series [5] in a line: Cytotoxicity against HEK293 cells assessed as reduction in cell viability at 25 uM incubated for 48 hrs by MTT assay relative to control. The series is classed as cell-based. The following applies: human, read-out: INH.
Series [6] can be described thus: Antioxidant activity assessed as DPPH radical scavenging activity at 10 uM incubated for 30 mins under dark condition by spectrophotometry. The series is classed as functional. In general terms: The DPPH test is a chemical assay of radical scavenging.
Series [7] relates to MIN6. Nature of the series: Effect on cell morphology in mouse MIN6 cells assessed as cell viability up to 400 uM incubated for 24 hrs. The settings on record: min6, 24 h. The series is classed as cell-based.
Series [8] has as its target Aldo-keto reductase family 1 member B1 (Rattus norvegicus) (UniProt P07943). As to the kind of experiment: (§2) Inhibition of ALR2 in rat sciatic nerve assessed as reduction in sorbitol accumulation incubated for 3 hrs in presence of 28 mM glucose by gas chromatographic analysis.
Series [9] concerns the target T1, Aldo-keto reductase family 1 member B1. The description is as §2.
Series [10] deals with MIN6. As to the kind of experiment: Antidiabetic activity in mouse MIN6 cells after 83 passages assessed as increase in insulin secretion at 100 uM in presence of 25 mM glucose by ELISA relative to control. The series is classed as functional. (In an ELISA, binding on a coated surface is turned into a signal by an enzyme label.)
Series [11] deals with MIN6. Nature of the series: Antidiabetic activity in mouse MIN6 cells after 35 passages assessed as increase in insulin secretion at 100 uM in presence of 25 mM glucose by ELISA relative to control. Format: functional.
Series [12] relates to MIN6. As to the kind of experiment: Cytotoxicity against mouse MIN6 cells assessed as reduction in cell viability up to 200 uM incubated for 24 hrs by MTT assay. Format: cell-based. The settings on record: min6, 24 h.
Series [13] in a line: Antioxidant activity assessed as DPPH radical scavenging activity at 100 uM incubated for 30 mins under dark condition by spectrophotometry. Format: functional.
Series [14] in a line: Antioxidant activity assessed as DPPH radical scavenging activity at 50 uM incubated for 30 mins under dark condition by spectrophotometry. Format: functional.
The target in series [15] is Aldo-keto reductase family 1 member B1 (Rattus norvegicus) (UniProt P07943). As to the kind of experiment: (§3) Inhibition of ALR2 in rat lens assessed as reduction in sorbitol accumulation incubated for 3 hrs in presence of 28 mM glucose by gas chromatographic analysis relative to control.
Series [16] has as its target T1, Aldo-keto reductase family 1 member B1. Described as §3.
The nature of series [17]: Cytotoxicity against HEK293 cells assessed as reduction in cell viability at 200 uM incubated for 48 hrs by MTT assay relative to control. The series is classed as cell-based. The settings on record: human, read-out: INH.
A short description of series [18]: Cytotoxicity against mouse MIN6 cells assessed as cell viability at 400 uM incubated for 24 hrs by MTT assay. Format: cell-based. The following applies: read-out: Activity.
The nature of series [19]: Cytotoxicity against HEK293 cells assessed as reduction in cell viability at 100 uM incubated for 48 hrs by MTT assay relative to control. Format: cell-based. The settings on record: human, read-out: INH.

Turning to `Cc1ccc(S(=O)(=O)N2C(=O)NC(=O)C23CCCc2ccccc23)cc1` (configuration not stated), the IC50 in series [1] came out at 5.02 µM; in series [3], 1.34 µM; in [9], 1.33 µM; in series [16], 1.15 µM. Also, the inhibition result in series [2] is “Dose-dependent effect”; in [6] it was 33.3%; in series [8] it was “Dose-dependent effect”; in series [13], 42.4%; in series [14], 37.5%; in [15] it was “Dose-dependent effect”. In series [4], the cytotoxicity at 48 h, 50 µM is 22.9%. In addition, the cytotoxicity at 48 h, 25 µM in series [5] turned out to be 13.9%. For the same compound, the Activity entry with MIN6 [7] is recorded as “Non-Toxic”; in the series with MIN6 [10] it was 222%; in the series on MIN6 [11], 308%; in the series with MIN6 [12], “Non-Toxic”. Moreover, in series [17], the cytotoxicity at 48 h, 200 µM stood at 32%. Besides, the viability at 24 h, 400 µM in series [18] is 81%. In series [19], the cytotoxicity at 48 h, 100 µM was 22.6%.
With `CC(/C=C1\SC(=S)N(CC(=O)O)C1=O)=C\c1ccccc1`, the cytotoxicity at 48 h, 50 µM in [4] was 12%. For the same compound, in series [5], the cytotoxicity at 48 h, 25 µM turned out to be 10.3%. Besides, in series [17], the cytotoxicity at 48 h, 200 µM was 18.3%. In addition, the cytotoxicity at 48 h, 100 µM in [19] was 13.7%.
Consider `CC(=O)c1ccc(S(=O)(=O)N2C(=O)NC3(CCCc4ccccc43)C2=O)cc1` (configuration not stated), for which the IC50 in series [1] was found to be 37.7 µM; in [3], 25.7 µM; in series [9], 22.7 µM; in series [16] it was 34.8 µM. Also, the inhibition result in series [2] is “Dose-dependent effect”; in [6], 25.1%; in [8] it was “Dose-dependent effect”; in [13] it was 75.3%; in series [14], 39.8%; in series [15] it was “Dose-dependent effect”. Besides, the cytotoxicity at 48 h, 50 µM in [4] was 24.4%. In addition, the cytotoxicity at 48 h, 25 µM in series [5] came to 17.5%. Also, the Activity entry is “Non-Toxic” in the series with MIN6 [7], 118% in the series on MIN6 [11] and “Non-Toxic” in the series with MIN6 [12]. Moreover, the cytotoxicity at 48 h, 200 µM in series [17] is 55.5%. The viability at 24 h, 400 µM in series [18] turned out to be 81%. In addition, the cytotoxicity at 48 h, 100 µM in [19] came to 42%.
`O=C1NC(=O)C2(CCCc3ccccc32)N1S(=O)(=O)c1ccc(Cl)cc1` (configuration not stated): the IC50 was 6.15 µM in series [1], 3.8 µM in series [3], 4.34 µM in [9] and 3.86 µM in series [16]. Moreover, the inhibition entry was “Dose-dependent effect” in [2], “Dose-dependent effect” in series [8], 8.48% in [13] and “Dose-dependent effect” in series [15]. The cytotoxicity at 48 h, 50 µM in [4] stood at 12.6%. For the same compound, in [5], the cytotoxicity at 48 h, 25 µM was found to be 10.8%. The Activity entry in the series with MIN6 [7] is listed as “Non-Toxic”; with MIN6 [10], 159%; in the series with MIN6 [11], 140%; with MIN6 [12], “Non-Toxic”. The cytotoxicity at 48 h, 200 µM in series [17] turned out to be 33.3%. For the same compound, the viability at 24 h, 400 µM in series [18] amounted to 81%. Moreover, the cytotoxicity at 48 h, 100 µM in series [19] is 19.9%.
Regarding `O=C1NC(=O)C2(CCCc3ccccc32)N1S(=O)(=O)c1ccc([N+](=O)[O-])cc1` (configuration not stated), in [1], the IC50 came out at 34.5 µM. For the same compound, the inhibition result in series [2] is “Dose-dependent effect”; in series [6] it was 70.5%; in series [8] it was “Dose-dependent effect”; in [13], 87.6%; in series [14], 77.3%; in [15] it was “Dose-dependent effect”. Moreover, the cytotoxicity at 48 h, 50 µM in series [4] was found to be 36%. The cytotoxicity at 48 h, 25 µM in series [5] is 23.6%. In addition, the figures for the Activity result in the series on MIN6 [7], in the series with MIN6 [11] and in the series on MIN6 [12] were “Non-Toxic”, 145% and “Non-Toxic”, respectively. Further, in series [17], the cytotoxicity at 48 h, 200 µM is 53.4%. Moreover, the viability at 24 h, 400 µM in series [18] amounted to 81%. The cytotoxicity at 48 h, 100 µM in series [19] turned out to be 39.2%.
Regarding `O=C1NC2(CCCc3ccccc32)C(=O)N1S(=O)(=O)c1ccc([N+](=O)[O-])cc1` (configuration not stated), the inhibition entry in [2] was “Dose-dependent effect”; in [6], 44.8%; in [8] it was “Dose-dependent effect”; in series [13], 77.6%; in series [14], 67.3%; in series [15] it was “Dose-dependent effect”. Besides, in series [4], the cytotoxicity at 48 h, 50 µM turned out to be 14.2%. Further, the cytotoxicity at 48 h, 25 µM in [5] turned out to be 9.37%. The Activity entry in the series with MIN6 [7] is given as “Non-Toxic”; with MIN6 [11], 121%; with MIN6 [12] it was “Non-Toxic”. Moreover, in series [17], the cytotoxicity at 48 h, 200 µM amounted to 28.4%. Besides, in series [18], the viability at 24 h, 400 µM stood at 81%. The cytotoxicity at 48 h, 100 µM in series [19] stood at 19.2%.
On to `O=C1NC2(CCCc3ccccc32)C(=O)N1S(=O)(=O)c1ccc(F)cc1` (configuration not stated), for which the inhibition result was “Dose-dependent effect” in [2], “Dose-dependent effect” in [8], 2.51% in series [13] and “Dose-dependent effect” in [15]. In addition, the cytotoxicity at 48 h, 50 µM in series [4] was found to be 26.1%. In addition, the cytotoxicity at 48 h, 25 µM in series [5] was found to be 11.4%. In addition, the Activity result in the series with MIN6 [7] was “Non-Toxic”; in the series on MIN6 [11] it was 111%; with MIN6 [12] it was “Non-Toxic”. Moreover, the cytotoxicity at 48 h, 200 µM in series [17] is 36.5%. Also, the viability at 24 h, 400 µM in series [18] worked out at 81%. Moreover, in series [19], the cytotoxicity at 48 h, 100 µM was 31.9%.
On to `Cc1c(C)c2c(c(C)c1O)CCC(C)(C(=O)O)O2` (configuration not stated), for which the values for the inhibition in [6], in [13] and in [14] were 82.5%, 94.2% and 84.5%, respectively.
For `O=C1NC2(CCCc3ccccc32)C(=O)N1S(=O)(=O)c1ccc(Cl)cc1` (configuration not stated), the IC50 in series [1] came to 40.2 µM. The inhibition entry was “Dose-dependent effect” in series [2], “Dose-dependent effect” in [8], 8.44% in series [13] and “Dose-dependent effect” in [15]. Further, in series [4], the cytotoxicity at 48 h, 50 µM was 16.1%. In [5], the cytotoxicity at 48 h, 25 µM came to 12.7%. Further, the Activity result is “Non-Toxic” in the series on MIN6 [7], 145% in the series on MIN6 [11] and “Non-Toxic” in the series on MIN6 [12]. Besides, the cytotoxicity at 48 h, 200 µM in [17] amounted to 23.3%. Further, the viability at 24 h, 400 µM in [18] was found to be 81%. In addition, in [19], the cytotoxicity at 48 h, 100 µM came to 18.2%.
With `O=C1NC(=O)C2(CCCc3ccccc32)N1S(=O)(=O)c1ccc(F)cc1` (configuration not stated), the IC50 came out at 5.84 µM in [1], 5.49 µM in [3], 7.37 µM in [9] and 6.25 µM in series [16]. In addition, the inhibition entry in [2] was “Dose-dependent effect”; in series [8], “Dose-dependent effect”; in [13], 2.52%; in series [15] it was “Dose-dependent effect”. For the same compound, the cytotoxicity at 48 h, 50 µM in series [4] worked out at 18.9%. In [5], the cytotoxicity at 48 h, 25 µM amounted to 11.9%. Besides, the Activity result in the series on MIN6 [7] is “Non-Toxic”; with MIN6 [10], 164%; in the series on MIN6 [11], 250%; with MIN6 [12], “Non-Toxic”. In addition, the cytotoxicity at 48 h, 200 µM in series [17] was 36.3%. The viability at 24 h, 400 µM in series [18] stood at 81%. For the same compound, the cytotoxicity at 48 h, 100 µM in [19] was 25.1%.
